Experimental data from PMC11079024, “Identification of a family of species-selective complex I inhibitors as potential anthelmintics” (Nature Communications, 2024).
Values joined by “and” are separate entries in the source; they are usually repeats but may differ in a detail not shown here. Equal entries are not always repeated. Where two headings read alike, the source gives them in different places.

Legend:
[1] = test system: C. elegans; experiment: C. elegans chemical screens of RIKEN NPD libraries at 50 μM (hit identification in KCN survival and development/viability assays); format: cell-based, Caenorhabditis elegans
[2] = test system: adult H. polygyrus; format: cell-based, Heligmosomoides polygyrus; settings: for Worm viability score, individual worms (Worm1-Worm20): scale from 0 (dead) to 3 (motile)
Procedure: (§1) After either 24- or 72 h chemical treatment, worm viability was manually scored by an examiner using a scale from 0 (dead) to 3 (motile); DMSO was used as a negative control in both 24- and 72 h treatments. The percentage of affected worms (i.e., worms with a score equal to or lower than 1.5) in each biological replicate is shown; data are from two biological replicates. Within each boxplot, black horizontal lines denote group medians, boxes span from the 25th to the 75th percentile of each group’s distribution, and whiskers extend to the maximum and minimum values.
The eleven benzimidazole derivatives were tested at a concentration of 10 µM under aerobic conditions against L3 and adult H. polygyrus.
For the larval assay, mice feces were collected 2 weeks post-infection and eggs were isolated. The eggs were left on agar at room temperature in the dark for eight to 10 days to allow them to develop into L3. Next, 30–40 L3 were incubated (37 °C, 5% CO2) in the culture medium (RPMI 1640 medium + 1% pen./strep. + 5% amphotericin B) containing the derivatives in 96-well plate (Corning, USA) reaching a final volume of 250 µL for 24 h. For the adult drug screening assay, female NMRI mice were euthanized with CO2 and adult H. polygyrus were dissected out of the intestines. Subsequently, three worms were exposed to the culture medium (RPMI 1640 medium + 1% pen./strep. + 5% amphotericin B) with the derivatives (2 mL) in a 24-well plate (Corning, USA) for either 24 or 72 h. DMSO ( < 1%) served as a negative control in both assays. All conditions were tested in duplicates. Finally, 80 µL of hot water ( ~ 80 °C) for L3 and 500 µL of hot water (~80 °C) for adults were added to the wells to check for their viability under a microscope (Carl Zeiss, Germany). Larvae were categorized as being either alive or dead, depending on whether they moved or not. […] The whole experiment was performed two times i.e., two independent biological replicates for both life stages (L3s and adults) and exposure times (24 and 72 h).

[3] = test system: adult H. polygyrus; experiment: microbe, parasite or virus in culture; format: cell-based, Heligmosomoides polygyrus; settings: anaerobic, 24 hours after treatment; for Percent Worms Affected: adult H. polygyrus, affected = score equal to or lower than 1.5; for # of Worms Affected: worms with score equal to or lower than 1.5; for Worm viability score, individual worms (Worm1-Worm20): scale from 0 (dead) to 3 (motile)
Procedure: To investigate the impact of the eleven benzimidazole derivatives under anaerobic conditions, an anaerobic chamber with an integrated incubator (Coy Laboratory Products, USA) was used. The same procedure was followed as described for the aerobic drug screening in adult H. polygyrus, but the incubation took place within the anaerobic chamber (37 °C, 85% N2, 10% CO2, 5% H2). Benzimidazole derivatives were tested at a concentration of 10 µM. For scoring, the plates had to be removed from the anaerobic chamber. The whole experiment was performed two times i.e., two independent biological replicates.
as §1, with “The activities of eleven benzimidazole derivatives were tested against adult H. polygyrus viability in vitro under aerobic (+, white boxplots) and anaerobic (–, coloured boxplots) conditions (see Methods). After” for “After”, “24-hour” for “either 24- or 72 h”, “aerobic” for “24-”, “anaerobic conditions; levamisole was used as a positive control in anaerobic conditions.” for “72 h treatments.”, “values. […]” for “values.”

[4] = target: B. taurus (heart) complex I (Bos taurus, UniProt P03887+P17694+P42026); experiment: biochemical; format: biochemical
B. taurus (heart) complex I, sequence (P03887 whole entry): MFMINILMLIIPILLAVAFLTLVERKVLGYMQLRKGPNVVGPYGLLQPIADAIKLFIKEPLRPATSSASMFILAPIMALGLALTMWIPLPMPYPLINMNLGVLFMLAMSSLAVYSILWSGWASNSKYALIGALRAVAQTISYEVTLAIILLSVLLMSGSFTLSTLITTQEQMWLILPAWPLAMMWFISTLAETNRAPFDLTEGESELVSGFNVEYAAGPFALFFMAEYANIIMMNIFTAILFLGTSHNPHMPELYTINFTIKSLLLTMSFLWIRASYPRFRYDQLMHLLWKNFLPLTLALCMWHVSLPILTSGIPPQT
B. taurus (heart) complex I, sequence (P17694 34-463): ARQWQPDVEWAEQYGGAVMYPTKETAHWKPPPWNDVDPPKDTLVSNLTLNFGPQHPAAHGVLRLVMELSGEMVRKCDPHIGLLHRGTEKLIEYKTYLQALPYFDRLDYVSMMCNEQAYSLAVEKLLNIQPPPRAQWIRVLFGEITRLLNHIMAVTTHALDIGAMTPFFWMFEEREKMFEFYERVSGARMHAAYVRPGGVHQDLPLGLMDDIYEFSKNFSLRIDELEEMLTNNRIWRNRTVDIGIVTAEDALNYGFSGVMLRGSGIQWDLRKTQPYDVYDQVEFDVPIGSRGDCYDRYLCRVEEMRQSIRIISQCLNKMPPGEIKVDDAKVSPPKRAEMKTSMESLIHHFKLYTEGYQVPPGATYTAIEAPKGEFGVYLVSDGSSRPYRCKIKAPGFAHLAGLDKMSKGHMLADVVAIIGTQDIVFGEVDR
B. taurus (heart) complex I, sequence (P42026 38-216): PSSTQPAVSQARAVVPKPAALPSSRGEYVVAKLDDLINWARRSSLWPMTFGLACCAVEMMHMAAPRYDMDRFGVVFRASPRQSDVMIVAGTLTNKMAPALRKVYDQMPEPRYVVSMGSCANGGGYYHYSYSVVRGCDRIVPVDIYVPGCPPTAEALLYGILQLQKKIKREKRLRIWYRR
Procedure: Six 8–10-week-old C57Bl/6 female mice (Charles River) were freshly dissected, and their livers and hearts collected into separate 1.5 mL microcentrifuge tubes. Organs were flash-frozen in liquid nitrogen and stored at −80 °C prior to use. The heart of a freshly slaughtered adult cow was obtained from a local abattoir (Peel Sausage Inc.), chopped into ~1-inch cubes and collected into 50 mL falcon tubes. Falcon tubes were flash-frozen in a container of dry ice and stored at −80 °C prior to use. Isolation of mitochondria from all mammalian tissue was carried out following the protocol described above. However, due to size, the initial homogenization of tissue was performed by 15 strokes in a dounce homogenizer (mouse heart) or with several 5 s pulses in small Nutribullet blender (cow heart). All mouse protocols for mouse care and dissection were reviewed and approved by the University of Toronto Animal Care Committee, in accordance with the Canadian Council on Animal Care.
The enzymatic activities of individual ETC complexes (I-IV) were assessed spectrophotometrically in isolated mitochondria using a Varioskan LUX Multimode plate reader (ThermoFisher Scientific). Mitochondrial pellets previously isolated were thawed on ice and resuspended in ice-cold isolation buffer (250 mM sucrose, 10 mM Tris (pH 7.5), 1 mM EDTA). The BCA assay (Walker, 1994) was used to quantify the protein concentration of mitochondria suspensions; solutions were diluted to a concentration of 0.2 mg/mL for use in all assays. For the complex I assay, mitochondria pellets were freeze-thawed on ice three times to increase enzyme accessibility. […] 20 μL mitochondria suspension was then added/mixed with a pipette to initiate the reaction. Immediately following the addition of mitochondria, absorbance was measured (complex I and II: 600 nm; complex III and IV: 550 nm) in 30 s intervals over 15 min. Enzymatic activity was determined in each reaction by plotting absorbance versus time and calculating the slope of the curve during the initial linear phase of the reaction. […] Percent activity of each complex was calculated by dividing the enzyme-specific activity of each well by the enzyme-specific activity of the corresponding solvent controls.
Chemical solutions were prepared in complex I assay buffer composed of 25 mM KPi buffer (pH 7.5), 3 mg/mL bovine serum albumin (BSA), 80 μM NADH, 60 μM decylubiquinone, 160 μM DCIP, 2 μM antimycin A and 2 mM KCN.
For preliminary screens of hit compounds, compounds were screened at 100 μM; data are the average of at least three biological replicates. The complex I and II activity assays were used for additional dose-response experiments. […] For dose responses of benzimidazole analogs, data represent the average of two biological replicates. For all other dose-responses, data represent the average of at least three biological replicates.

[5] = test system: L1 wild-type C. elegans; settings: 50 μM compound; […]; hit = relative motility below 0.25 3 hours after removal of KCN
[6] = in vitro; settings: human
[7] = target: C. elegans (N2) complex I (NADH:ubiquinone oxidoreductase) (Caenorhabditis elegans, UniProt P24887+Q93873+Q94360); experiment: biochemical; format: biochemical
C. elegans (N2) complex I (NADH:ubiquinone oxidoreductase), sequence (Q94360 17-199): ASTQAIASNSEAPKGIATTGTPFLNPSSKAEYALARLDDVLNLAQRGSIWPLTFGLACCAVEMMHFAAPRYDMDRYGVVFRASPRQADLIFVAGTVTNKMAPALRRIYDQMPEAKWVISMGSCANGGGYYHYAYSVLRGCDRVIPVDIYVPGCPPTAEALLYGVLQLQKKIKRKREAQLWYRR
C. elegans (N2) complex I (NADH:ubiquinone oxidoreductase), sequence (P24887 whole entry): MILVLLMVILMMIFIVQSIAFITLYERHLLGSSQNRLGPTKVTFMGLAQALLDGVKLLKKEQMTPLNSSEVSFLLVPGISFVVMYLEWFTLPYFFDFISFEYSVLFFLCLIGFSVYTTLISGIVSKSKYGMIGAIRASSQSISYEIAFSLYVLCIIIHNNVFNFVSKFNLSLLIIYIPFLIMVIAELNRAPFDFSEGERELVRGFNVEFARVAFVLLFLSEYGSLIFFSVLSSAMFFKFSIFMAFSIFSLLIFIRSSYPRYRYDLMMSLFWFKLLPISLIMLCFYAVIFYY
C. elegans (N2) complex I (NADH:ubiquinone oxidoreductase), sequence (Q93873 31-482): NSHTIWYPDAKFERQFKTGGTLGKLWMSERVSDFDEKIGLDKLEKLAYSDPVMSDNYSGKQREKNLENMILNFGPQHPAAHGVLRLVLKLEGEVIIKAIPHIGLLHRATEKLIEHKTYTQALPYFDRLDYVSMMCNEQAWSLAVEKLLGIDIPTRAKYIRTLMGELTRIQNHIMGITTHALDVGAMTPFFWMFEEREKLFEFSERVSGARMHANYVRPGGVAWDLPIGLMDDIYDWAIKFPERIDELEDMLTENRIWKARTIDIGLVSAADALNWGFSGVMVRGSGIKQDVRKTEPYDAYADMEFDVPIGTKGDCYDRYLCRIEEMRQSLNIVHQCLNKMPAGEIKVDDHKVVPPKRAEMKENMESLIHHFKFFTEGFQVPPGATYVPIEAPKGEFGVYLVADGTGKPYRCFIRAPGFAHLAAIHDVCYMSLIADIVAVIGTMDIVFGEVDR
Summary of the method: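 Compounds were tested against freeze-thawed isolated mitochondria (0.2 mg/mL protein). NADH:decylubiquinone activity was monitored via DCIP absorbance at 600 nm, and the initial linear slope was normalised to solvent controls.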

[8] = test system: ben-1 mutant (ECA882) C. elegans; experiment: microbe, parasite or virus in culture; settings: Caenorhabditis elegans
Procedure: Liquid development and viability assays were adapted from a previously established chemical screening protocol (Burns et al.)[24]. In brief, a saturated culture of E. coli HB101 was concentrated 2-fold in liquid NGM and 40 μL of this suspension was distributed to each well of a 96-well flat-bottom culture plate. 0.5 μL chemical solution (or DMSO alone) was added to each well (1% DMSO v/v) using either a multi-channel pipette or a pinning tool (V&P Scientific). L1 worms synchronized from an embryo preparation performed the day prior were diluted to a concentration of ~2 worms/μL in M9 buffer; 10 μL worm suspension was then added to each well. Culture plates were sealed with parafilm and placed in a plastic container lined with wet paper towels to prevent evaporation. Containers were then incubated for 6 days at 20 °C with shaking at 165 rpm. Following incubation, 300 μL M9 was added to each well to decrease the turbidity of the HB101-NGM suspension. Single images of each microplate well were then taken on a Nikon Ti Eclipse inverted microscope (Nikon NIS Elements AR). Images were processed using Python scripts to isolate worm-associated pixels from background. Scores of worm development and viability were determined as the sum of worm-associated pixels in each well. Development/viability scores for each well were divided by the development /viability scores for the corresponding DMSO controls, resulting in a relative viability value for each chemical. At least three biological replicates were performed for each dose-response experiment; relative viability values were averaged across replicates. […]
anthelmintics. a. Chemical structures of four commercial benzimidazole anthelmintics (e.g., albendazole, […]
Dose response of four commercial […]
elegans strains: N2, wild type; ECA882, deletion (ben-1); ECA917, F200Y (ben-1); ECA1075, F167Y (ben-1); ECA1080, E198A (ben-1); CB3474, G104D (ben-1). The colour-coded scale denotes the phenotypic outcome of drug treatment (e.g., motility or viability) relative to DMSO controls; white/pale- […]
death and arrested development. c. […]
benzimidazole anthelmintics (blue) were conducted in C. elegans development and viability assays for wild type (N2) and ben-1 mutant (ECA882) C. elegans (see Supplementary Date File 1).
All data used for generation of dose-response curves is the mean of at least three […]
Supplementary Figure 7 (continued). Davie et al.

[9] = test system: L1 wild-type C. elegans; experiment: microbe, parasite or virus in culture; settings: Caenorhabditis elegans, read-out: C. elegans KCN Survival Assay LC50, estimated from fitted dose-response curves; mean of at least two biological replicates
[10] = screened at 50 μM in triplicate, […], KCN = KCN survival assay, Dev. & Viability = development/viability assay
[11] = adult H. polygyrus, in vitro, aerobic, 24 hours, per biological replicate
[12] = adult H. polygyrus, in vitro, aerobic, 72 hours, per biological replicate

CN[C@@H]1C[C@H]2O[C@@](C)([C@@H]1OC)n1c3ccccc3c3c4c(c5c6ccccc6n2c5c31)C(=O)NC4 [Staurosporine, reference compound]
Hit Type [1, 10]: Dev. & Viability

COC(=O)Nc1nc2ccc(C(=O)c3cccs3)cc2[nH]1 [Nocodazole, reference compound]
Hit Type [1, 10]: Dev. & Viability

CC[C@@]1(O)C(=O)OCc2c1cc1n(c2=O)Cc2cc3ccccc3nc2-1 [Camptothecin, reference compound]
Hit Type [1, 10]: Dev. & Viability

COc1cccc2c1cc([N+](=O)[O-])c1c(C(=O)O)cc3c(c12)OCO3 [Aristolochic acid, reference compound]
Hit Type [1]: Dev. & Viability

CCCC[C@@]1(OC(=O)CCC(=O)O)CC[C@]2(CC[C@H](C)[C@@H](C/C=C(C)/C=C/[C@H](O)[C@@H](C)/C=C/C(=O)O)O2)O[C@H]1/C=C/C(C)=C/C(=O)O [Reveromycin A, reference compound]
Hit Type [1, 10]: Dev. & Viability

CC(C)Cc1ccc(C(C)c2nc3ccccc3n2C)cc1 (racemic) [NPD87890]
Worm viability score of individual worm, scale from 0 (dead) to 3 (motile) [2]: 1 and 0.5 | Percent Worms Affected ([2]; adult H. polygyrus, aerobic, replicate 1, 24 hours after treatment, affected = score equal to or lower than 1.5): 100% | # of Worms Affected [2, 11]: 3 and 6 | Percent Worms Affected (worms with a score equal to or lower than 1.5) [2, 11]: 50% and 100% | Worm viability score of individual worm, scale from 0 (dead) to 3 (motile) ([2]; adult H. polygyrus, in vitro, aerobic, 24 hours, single worms): 2 (2×) and 2.5 and 1.5 and 1 and 1.25 (5×) | # of Worms Affected [2, 12]: 5 and 6 | Percent Worms Affected (worms with a score equal to or lower than 1.5) [2, 12]: 83% and 100% | Worm viability score of individual worm, scale from 0 (dead) to 3 (motile) ([2]; adult H. polygyrus, in vitro, aerobic, 72 hours, single worms): 2 and 1.5 and 1 (2×) and 0.5 and 0.75 (3×) | # of Worms Affected ([2]; aerobic, replicate 1, 24 hours after treatment, worms with score equal to or lower than 1.5): 6 | Worm viability score, individual worms (Worm1-Worm20) ([2]; aerobic, replicate 1, 24 hours after treatment): 1.25 (5×) and 1 | # of Worms Affected ([2]; aerobic, replicate 2, 24 hours after treatment, worms with score equal to or lower than 1.5): 3 | Worm viability score, individual worms (Worm1-Worm20) ([2]; aerobic, replicate 2, 24 hours after treatment): 2 (2×) and 2.5 and 1 (2×) and 1.5 | Percent Worms Affected ([3]; replicate 1): 100% | Percent Worms Affected ([3]; replicate 2): 100% | # of Worms Affected ([3]; replicate 1): 6 | Worm viability score, individual worms (Worm1-Worm20) ([3]; replicate 1): 0.5 (3×) and 0 (2×) and 1 | # of Worms Affected ([3]; replicate 2): 6 | Worm viability score, individual worms (Worm1-Worm20) ([3]; replicate 2): 1.5 and 1 (5×)

Cc1nc2ccccc2n1Cc1ccc(F)cc1 [Compound 7360886]
IC50 ([4]; B. taurus heart mitochondria, estimated from fitted dose-response curves, read-out: B. taurus Complex I IC50): 4.54 µM | Log IC50 B. taurus complex I ([4]; log10 of IC50 in µM, B. taurus mitochondria): 0.66 µM | Screen "Hit" [5]: Y (hits were identified as compounds that reduced relative motility below 0.25 (75% reduction)) | CC50 at 2 days [6]: > 100 µM | IC50 ([7]; in vitro complex I dose response on C. elegans mitochondria, average of at least two biological replicates, fit in R (DRC), read-out: IC50 C. elegans complex I): 930 nM | Log IC50 C. elegans complex I ([7]; log10 of IC50 in µM, C. elegans mitochondria): -0.03 µM | IC50 ([7]; wild-type (N2) mitochondria, read-out: C. elegans Complex I IC50): 930 nM | IC50 ([7]; wild-type C. elegans mitochondria, estimated from fitted dose-response curves, read-out: C. elegans Complex I IC50): 930 nM | LC50 ([8]; read-out: C. elegans (ben-1) Development & Viability Assay LC50): 170 µM | LC50 ([8]; read-out: C. elegans ben-1 log10 LC50 (converted)): 169 µM | LC50 [9]: 27 µM
